Experimental findings from US20080221128A1, “Metalloprotease inhibitors containing a squaramide moiety” (priority 2007, published 2008) are described below.

Where two headings read alike, the source gives them in different places.

What is called IC50 is the point on the concentration scale where inhibition reaches its midpoint.

Common to all, as to type: biochemical
The target of one assay is T1, MMP-13 (Homo sapiens, UniProt P45452).
T1 construct: stock solution of catalytic domain of MMP-13 enzyme (produced by Alantos or commercially available from Invitek (Berlin), Cat.# 30100812); purchased Invitek (Berlin) 30100812
The assay is described as follows: Assay for determining MMP-13 inhibition (fluorescent substrate). The settings on record: catalytic domain of MMP-13. How it is done:
The typical assay for MMP-13 activity is carried out in assay buffer comprised of 50 mM Tris, pH 7.5, 150 mM NaCl, 5 mM CaCl2 and 0.05% Brij-35. Different concentrations of tested compounds are prepared in assay buffer in 50 μL aliquots. 10 μL of a 50 nM stock solution of catalytic domain of MMP-13 enzyme (produced by Alantos or commercially available from Invitek (Berlin), Cat.# 30100812) is added to the compound solution. The mixture of enzyme and compound in assay buffer is thoroughly mixed and incubated for 10 min at room temperature. Upon the completion of incubation, the assay is started by addition of 40 μL of a 12.5 μM stock solution of MMP-13 fluorescent substrate (Calbiochem, Cat. No. 444235). The time-dependent increase in fluorescence is measured at the 320 nm excitation and 390 nm emission by automatic plate multireader. The IC50 values are calculated from the initial reaction rates.

In a further assay the target is T2, MMP-8 (Homo sapiens, UniProt P22894).
T2 construct: purchased Calbiochem 444229
The assay is described as follows: Assay for determining MMP-8 inhibition (fluorescent substrate). To be noted: activated MMP-8 enzyme; upper bound class. Here is the method:
The typical assay for MMP-8 activity is carried out in assay buffer comprised of 50 mM Tris, pH 7.5, 150 mM NaCl, 5 mM CaCl2 and 0.05% Brij-35. Different concentrations of tested compounds are prepared in assay buffer in 50 μL aliquots. 10 μL of a 50 nM stock solution of activated MMP-8 enzyme (Calbiochem, Cat. No. 444229) is added to the compound solution. The mixture of enzyme and compound in assay buffer is thoroughly mixed and incubated for 10 min at 37° C. Upon the completion of incubation, the assay is started by addition of 40 μL of a 10 μM stock solution of OmniMMP fluorescent substrate (Biomol, Cat. No. P-126). The time-dependent increase in fluorescence is measured at the 320 nm excitation and 390 nm emission by an automatic plate multireader at 37° C. The IC50 values are calculated from the initial reaction rates.

Another assay concerns the target T3, MMP-3 (Homo sapiens, UniProt P08254).
T3 construct: stock solution of the catalytic domain of MMP-3 enzyme (Biomol, Cat. No. SE-109); purchased Biomol SE-109
Nature of the assay: Assay for determining MMP-3 inhibition (fluorescent substrate). To be noted: catalytic domain of MMP-3. How it is done: The typical assay for MMP-3 activity is carried out in assay buffer comprised of 50 mM MES, pH 6.0, 10 mM CaCl2 and 0.05% Brij-35. Different concentrations of tested compounds are prepared in assay buffer in 50 μL aliquots. 10 μL of a […] stock solution of the catalytic domain of MMP-3 enzyme (Biomol, Cat. No. SE-109) is added to the compound solution. The mixture of enzyme and compound in assay buffer is thoroughly mixed and incubated for 10 min at room temperature. Upon the completion of incubation, the assay is started by addition of 40 μL of a 12.5 μM stock solution of NFF-3 fluorescent substrate (Calbiochem, Cat. No. 480-455). The time-dependent increase in fluorescence is measured at the 330 nm excitation and 390 nm emission by an automatic plate multireader. The IC50 values are calculated from the initial reaction rates.

Where [1] appears, read: upper bound class, read-out: MMP-13 inhibition activity (IC50 MMP-13).
Where [2] appears, read: upper bound class, read-out: MMP-3 inhibition activity (IC50 MMP-3).

T3 sequence (P08254 100-272 limits assumed): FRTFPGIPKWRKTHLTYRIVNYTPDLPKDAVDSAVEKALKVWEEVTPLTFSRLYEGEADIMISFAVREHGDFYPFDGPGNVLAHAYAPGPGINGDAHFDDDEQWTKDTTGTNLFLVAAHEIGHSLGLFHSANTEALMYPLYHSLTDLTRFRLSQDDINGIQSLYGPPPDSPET
T2 sequence (P22894 101-467): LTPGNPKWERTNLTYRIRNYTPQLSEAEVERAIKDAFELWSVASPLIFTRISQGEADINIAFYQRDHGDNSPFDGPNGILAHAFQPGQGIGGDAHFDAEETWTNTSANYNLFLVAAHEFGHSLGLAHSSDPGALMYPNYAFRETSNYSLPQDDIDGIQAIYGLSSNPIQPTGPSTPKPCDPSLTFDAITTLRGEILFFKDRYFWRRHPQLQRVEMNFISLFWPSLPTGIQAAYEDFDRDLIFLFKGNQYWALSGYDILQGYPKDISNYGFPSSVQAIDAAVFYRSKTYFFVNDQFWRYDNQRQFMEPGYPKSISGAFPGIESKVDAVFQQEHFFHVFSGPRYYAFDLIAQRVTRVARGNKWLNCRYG

`Cc1nc(C(=O)NCc2ccc3c(c2)CN(c2c(N)c(=O)c2=O)CC3)[nH]c(=O)c1C` [Example 1/2]: the IC50 at MMP-13 (setting [1]) is less than 100 nM.

With `Nc1c(N2CCc3ccc(CNC(=O)c4nc5sc6c(c5c(=O)[nH]4)CCC4(C6)OCCO4)cc3C2)c(=O)c1=O` [1/8], the IC50 was less than 250 nM against MMP-8, less than 250 nM at MMP-3 (setting [2]) and less than 100 nM on MMP-13 (setting [1]).

As for `Nc1c(N2CCc3ccc(CNC(=O)c4ncc(-c5ccc(F)cc5)c(=O)[nH]4)cc3C2)c(=O)c1=O` [Example 1], the IC50 at MMP-3 (range bounds printed with own units (nM to μM), read-out: MMP-3 inhibition activity (IC50 MMP-3), range) lay in the range of 250 to 20000 nM; at MMP-13 (range bounds printed with own units (nM to μM), read-out: MMP-13 inhibition activity (IC50 MMP-13), range), 100 to 20000 nM.

With `Cc1csc2nc(C(=O)NCc3ccc4c(c3)CN(c3c(N)c(=O)c3=O)CC4)[nH]c(=O)c12` [Example 1/3], the IC50 is less than 250 nM against MMP-8, less than 250 nM on MMP-3 (setting [2]) and less than 100 nM on MMP-13 (setting [1]).
